Measurements taken from PubChem BioAssay (NCI).
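Briefly, cells in 96-well plates were exposed to five compound concentrations for 48 h, and endpoints were estimated by linear interpolation. Here, GI50 denotes the concentration required for 50% inhibition of growth. TGI is the concentration that stops growth completely.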

What was measured:
Assay in all cases: NCI tumour cell line growth inhibition, 48 h
DMS 114 small cell lung = system: DMS 114 small cell lung
KM12 colon = system: KM12 colon
KM20L2 colon = system: KM20L2 colon
M19-MEL melanoma = system: M19-MEL melanoma
MALME-3M melanoma = system: MALME-3M melanoma
OVCAR-8 ovarian = system: OVCAR-8 ovarian
SNB-78 CNS = system: SNB-78 CNS
HOP-92 NSCLC = system: HOP-92 NSCLC
MCF7 breast = system: MCF7 breast
P388 leukemia = system: P388 leukemia
SN12K1 renal = system: SN12K1 renal
BT-549 breast = system: BT-549 breast
DU-145 prostate = system: DU-145 prostate

Row | SMILES | TGI (DMS 114 small cell lung) | TGI (KM12 colon) | TGI (KM20L2 colon) | TGI (M19-MEL melanoma) | TGI (MALME-3M melanoma) | TGI (OVCAR-8 ovarian) | TGI (SNB-78 CNS) | TGI (HOP-92 NSCLC) | TGI (MCF7 breast) | TGI (P388 leukemia) | TGI (SN12K1 renal) | TGI (BT-549 breast) | TGI (DU-145 prostate) | GI50 (BT-549 breast)
1 | COc1ccc(N2C(=O)/C(=C(\C)c3cc4ccccc4oc3=O)N=C2c2cc([N+](=O)[O-])ccc2Cl)cc1 | > 100 µM | 87.4 µM | > 100 µM | > 100 µM | > 100 µM | > 100 µM | > 100 µM |  |  |  |  |  |  | 
2 | CC(C)(C)[Si](OC1CC(n2cnc3c(N)ncnc32)OC1CO)(c1ccccc1)c1ccccc1 (stereo unspecified) | 54.2 µM | 38.9 µM | 29.5 µM | 42.9 µM | 45.9 µM | 33.3 µM | > 100 µM | 47.3 µM |  |  |  |  |  | 
3 | O=C(O)c1ccc(Nc2c3ccccc3nc3ccccc23)cc1 | > 100 µM | > 100 µM | > 100 µM | > 100 µM | > 100 µM | > 100 µM | > 100 µM | > 100 µM | > 100 µM | > 46.6 µM | > 100 µM |  |  | 
4 | COc1ccc(C2COc3cc(OC(C)=O)c(OC(C)=O)cc3C2)cc1 (stereo unspecified) | 20.6 µM | 34 µM | 65.8 µM | 37.7 µM | 44.8 µM | 44.9 µM | 81.4 µM | 23.6 µM | 62.7 µM | 33.5 µM | 35.7 µM |  |  | 
5 | CC(=O)N(C)c1ccc(Nc2cc(C)[nH]c3ccc4ncnc4c23)cc1 | 20.4 µM | 27.6 µM | 37.2 µM | 20.1 µM | 17.5 µM | 21.5 µM | 53.6 µM | 14.7 µM | 26 µM | 49.2 µM | 16.6 µM | 24.5 µM | 22.4 µM | 
6 | O=C1C(Cl)N(c2ccc(Cl)cc2)C1c1c[nH]c2ccccc12 (stereo unspecified) | 45.2 µM | > 100 µM | 38.3 µM | 98.4 µM | 25.6 µM | > 100 µM |  | 45.3 µM |  |  |  |  |  | 
7 | CCCCS(=O)CCC(N)P(=O)(O)O (stereo unspecified) |  | > 100 µM |  |  | > 100 µM | > 100 µM |  | > 100 µM | > 100 µM |  |  | > 100 µM | > 100 µM | 
8 | CC(C)(C)OC(=O)N1CCc2[nH][nH]c(=O)c2C1 |  | > 100 µM |  |  | > 100 µM | > 100 µM |  | > 100 µM | > 100 µM |  |  | > 100 µM | > 100 µM | 
9 | CC1(c2cccs2)CC(c2cccs2)=C(C#N)C(=C(C#N)C#N)N1 (stereo unspecified) |  | 32.3 µM |  |  | 35 µM | 42.9 µM |  | 30.8 µM | 39.1 µM |  |  | 57.5 µM | 28.9 µM | 
10 | COC(=O)c1cc2c3c(ccc2[nH]1)N(C(=O)c1cc2cc(OC)c(OC)c(OC)c2[nH]1)CC3CCl (stereo unspecified) |  | > 100 µM |  |  | > 100 µM | > 100 µM |  | > 100 µM | > 100 µM |  |  | > 100 µM | > 84.6 µM | 
11 | Nc1ncnc2c1ccn2C/C=C\CO |  | > 100 µM |  |  | > 100 µM | > 100 µM |  | > 100 µM | > 100 µM |  |  | > 100 µM | > 100 µM | 
12 | CCCC[C@@H]1CCN2C[C@@H](O)[C@@H](O)[C@@H]2[C@H]1O |  | > 100 µM |  |  | > 100 µM | > 100 µM |  | > 100 µM | > 100 µM |  |  | > 100 µM | > 100 µM | 
13 | CN1CCN(C(=O)CCNC(=O)Cc2ccc(C(=O)c3ccccc3)cc2)CC1 |  | > 100 µM |  |  | > 100 µM | > 100 µM |  | > 100 µM | > 100 µM |  |  | > 100 µM | > 100 µM | 
14 | Oc1c(C2=NNC(c3ccc(Cl)cc3Cl)C2)ccc2ccccc12 (stereo unspecified) |  | > 100 µM |  |  | > 100 µM | > 100 µM |  | > 100 µM | > 100 µM |  |  | > 100 µM | > 100 µM | 
15 | Oc1cn(-c2ccc(Cl)cc2)nc1-c1nnc(-c2ccccc2)o1 |  | 4.05 µM |  |  | 31.8 µM | 14.2 µM |  | 80.6 µM | 7.16 µM |  |  | > 91.9 µM | > 60.6 µM | 4.24 µM
